Assay results taken from patent US9469650B2, “Melampomagnolide B derivatives” (BOARD OF TRUSTEES OF THE UNIVERSITY OF ARKANSAS, priority 2013, dated 2016).
Like-named read-outs stand apart in the source and are kept apart here.

What was measured:
SK-MEL-2 = assay: panel of 60 human tumor cell lines, growth inhibition (Melanoma)
SR = assay: panel of 60 human tumor cell lines, growth inhibition (Leukemia)
OVCAR-8 = assay: panel of 60 human tumor cell lines, growth inhibition (Ovarian Cancer)
HCT-116 = assay: panel of 60 human tumor cell lines, growth inhibition (Colon Cancer); details: for Percent Growth: HCT-116
TK-10 = assay: panel of 60 human tumor cell lines, growth inhibition (Renal Cancer); details: for Percent Growth: TK-10
SN12C = assay: as above
UACC-257 = assay: panel of 60 human tumor cell lines, growth inhibition (Melanoma)
MDA-MB-468 = assay: panel of 60 human tumor cell lines, growth inhibition (Breast Cancer)
SNB-75 = assay: panel of 60 human tumor cell lines, growth inhibition (CNS Cancer)
MDA-MB-231/ATCC = assay: panel of 60 human tumor cell lines, growth inhibition (Breast Cancer); details: for Percent Growth: MDA-MB-231/ATCC
UACC-62 = assay: panel of 60 human tumor cell lines, growth inhibition (Melanoma)
CCRF-CEM = assay: panel of 60 human tumor cell lines, growth inhibition (Leukemia)
OVCAR-3 = assay: panel of 60 human tumor cell lines, growth inhibition (Ovarian Cancer)
A549/ATCC = assay: panel of 60 human tumor cell lines, growth inhibition (Non-Small Cell Lung Cancer); details: for Percent Growth: A549/ATCC
KM12 = assay: panel of 60 human tumor cell lines, growth inhibition (Colon Cancer)
SK-MEL-28 = assay: panel of 60 human tumor cell lines, growth inhibition (Melanoma)

SMILES: C=C1C(=O)O[C@H]2[C@H]1CC/C(COC(=O)CCC(=O)NCc1ccc(Cl)nc1)=C\CC[C@@]1(C)O[C@@H]21 [JVM 96]
- GI50 (SK-MEL-2; Homo sapiens, SK-MEL-2): 11.3 µM
- CC50 (SK-MEL-2; Homo sapiens, SK-MEL-2, read-out: LC50): 64.1 µM
- IC (TGI) (SK-MEL-2; Homo sapiens, SK-MEL-2, read-out: TGI): 26.9 µM
- Percent Growth (SK-MEL-2; SK-MEL-2, Log10 Concentration −4.0): −76%
- Percent Growth (SK-MEL-2; SK-MEL-2, Log10 Concentration −5.0): 57%
- Percent Growth (SK-MEL-2; SK-MEL-2, Log10 Concentration −6.0): 97%
- Percent Growth (SK-MEL-2; SK-MEL-2, Log10 Concentration −7.0): 92%
- Percent Growth (SK-MEL-2; SK-MEL-2, Log10 Concentration −8.0): 90%
- GI50 (SR; Homo sapiens): 2590 nM
- CC50 (SR; Homo sapiens, read-out: LC50): > 100 µM
- IC (TGI) (SR; Homo sapiens, read-out: TGI): 18 µM
- Percent Growth (SR; Log10 Concentration −4.0): −35%
- Percent Growth (SR; Log10 Concentration −5.0): 12%
- Percent Growth (SR; Log10 Concentration −6.0): 77%
- Percent Growth (SR; Log10 Concentration −7.0): 90%
- Percent Growth (SR; Log10 Concentration −8.0): 84%
- GI50 (OVCAR-8; Homo sapiens, OVCAR-8): 12.5 µM
- CC50 (OVCAR-8; Homo sapiens, OVCAR-8, read-out: LC50): 72 µM
- IC (TGI) (OVCAR-8; Homo sapiens, OVCAR-8, read-out: TGI): 30 µM
- Percent Growth (OVCAR-8; OVCAR-8, Log10 Concentration −4.0): −69%
- Percent Growth (OVCAR-8; OVCAR-8, Log10 Concentration −5.0): 63%
- Percent Growth (OVCAR-8; OVCAR-8, Log10 Concentration −6.0): 105%
- Percent Growth (OVCAR-8; OVCAR-8, Log10 Concentration −7.0): 95%
- Percent Growth (OVCAR-8; OVCAR-8, Log10 Concentration −8.0): 95%
- Percent Growth (HL-60(TB); Log10 Concentration −4.0): −48%
- Percent Growth (HL-60(TB); Log10 Concentration −5.0): −5%
- Percent Growth (HL-60(TB); Log10 Concentration −6.0): 76%
- Percent Growth (HL-60(TB); Log10 Concentration −7.0): 78%
- Percent Growth (HL-60(TB); Log10 Concentration −8.0): 91%
- Percent Growth (HCT-116; Log10 Concentration −4.0): −100%
- Percent Growth (HCT-116; Log10 Concentration −5.0): 13%
- Percent Growth (HCT-116; Log10 Concentration −6.0): 97%
- Percent Growth (HCT-116; Log10 Concentration −7.0): 93%
- Percent Growth (HCT-116; Log10 Concentration −8.0): 97%
- GI50 (HCT-116; Homo sapiens, HCT-116, HCT-116): 3.62 µM
- CC50 (HCT-116; Homo sapiens, HCT-116, read-out: LC50): 36.2 µM
- IC (TGI) (HCT-116; Homo sapiens, HCT-116, read-out: TGI): 13.1 µM
- GI50 (TK-10; Homo sapiens, TK-10, TK-10): 3.83 µM
- CC50 (TK-10; Homo sapiens, TK-10, read-out: LC50): 37.9 to 50 µM
- IC (TGI) (TK-10; Homo sapiens, TK-10, read-out: TGI): 13.5 µM
- Percent Growth (TK-10; Log10 Concentration −4.0): −99%
- Percent Growth (TK-10; Log10 Concentration −5.0): 15%
- Percent Growth (TK-10; Log10 Concentration −6.0): 99%
- Percent Growth (TK-10; Log10 Concentration −7.0): 103%
- Percent Growth (TK-10; Log10 Concentration −8.0): 102%
- GI50 (SN12C; Homo sapiens): 12.5 µM
- CC50 (SN12C; Homo sapiens, read-out: LC50): > 100 µM
- IC (TGI) (SN12C; Homo sapiens, read-out: TGI): 40.4 µM
- Percent Growth (SN12C; Log10 Concentration −4.0): −39%
- Percent Growth (SN12C; Log10 Concentration −5.0): 59%
- Percent Growth (SN12C; Log10 Concentration −6.0): 95%
- Percent Growth (SN12C; Log10 Concentration −7.0): 100%
- Percent Growth (SN12C; Log10 Concentration −8.0): 97%
- GI50 (UACC-257; Homo sapiens, UACC-257): 8.82 µM
- CC50 (UACC-257; Homo sapiens, UACC-257, read-out: LC50): 53.2 µM
- TGI (UACC-257; UACC-257): 2.26E−5
- Percent Growth (UACC-257; UACC-257, Log10 Concentration −4.0): −87%
- Percent Growth (UACC-257; UACC-257, Log10 Concentration −5.0): 47%
- Percent Growth (UACC-257; UACC-257, Log10 Concentration −6.0): 95%
- Percent Growth (UACC-257; UACC-257, Log10 Concentration −7.0): 90%
- Percent Growth (UACC-257; UACC-257, Log10 Concentration −8.0): 88%
- GI50 (MDA-MB-468; Homo sapiens, MDA-MB-468): 1540 nM
- CC50 (MDA-MB-468; Homo sapiens, MDA-MB-468, read-out: LC50): 44.6 µM
- IC (TGI) (MDA-MB-468; Homo sapiens, MDA-MB-468, read-out: TGI): 7.38 µM
- Percent Growth (MDA-MB-468; MDA-MB-468, Log10 Concentration −4.0): −72%
- Percent Growth (MDA-MB-468; MDA-MB-468, Log10 Concentration −5.0): −10%
- Percent Growth (MDA-MB-468; MDA-MB-468, Log10 Concentration −6.0): 64%
- Percent Growth (MDA-MB-468; MDA-MB-468, Log10 Concentration −7.0): 94%
- Percent Growth (MDA-MB-468; MDA-MB-468, Log10 Concentration −8.0): 88%
- GI50 (SNB-75; Homo sapiens, SNB-75): 4.59 µM
- CC50 (SNB-75; Homo sapiens, SNB-75, read-out: LC50): 47 µM
- IC (TGI) (SNB-75; Homo sapiens, SNB-75, read-out: TGI): 20.1 µM
- Percent Growth (SNB-75; SNB-75, Log10 Concentration −4.0): −94%
- Percent Growth (SNB-75; SNB-75, Log10 Concentration −5.0): 41%
- Percent Growth (SNB-75; SNB-75, Log10 Concentration −6.0): 68%
- Percent Growth (SNB-75; SNB-75, Log10 Concentration −7.0): 69%
- Percent Growth (SNB-75; SNB-75, Log10 Concentration −8.0): 80%
- GI50 (MDA-MB-231/ATCC; Homo sapiens, MDA-MB-231): 6.19 µM
- CC50 (MDA-MB-231/ATCC; Homo sapiens, MDA-MB-231, read-out: LC50): 61.5 µM
- IC (TGI) (MDA-MB-231/ATCC; Homo sapiens, MDA-MB-231, read-out: TGI): 22.2 µM
- Percent Growth (MDA-MB-231/ATCC; Log10 Concentration −4.0): −74%
- Percent Growth (MDA-MB-231/ATCC; Log10 Concentration −5.0): 39%
- Percent Growth (MDA-MB-231/ATCC; Log10 Concentration −6.0): 91%
- Percent Growth (MDA-MB-231/ATCC; Log10 Concentration −7.0): 96%
- Percent Growth (MDA-MB-231/ATCC; Log10 Concentration −8.0): 97%
- GI50 (UACC-62; Homo sapiens, UACC-62): 6.61 µM
- CC50 (UACC-62; Homo sapiens, UACC-62, read-out: LC50): 51.2 µM
- IC (TGI) (UACC-62; Homo sapiens, UACC-62, read-out: TGI): 20.9 µM
- Percent Growth (UACC-62; UACC-62, Log10 Concentration −4.0): −87%
- Percent Growth (UACC-62; UACC-62, Log10 Concentration −5.0): 41%
- Percent Growth (UACC-62; UACC-62, Log10 Concentration −6.0): 90%
- Percent Growth (UACC-62; UACC-62, Log10 Concentration −7.0): 98%
- Percent Growth (UACC-62; UACC-62, Log10 Concentration −8.0): 98%
- GI50 (CCRF-CEM; Homo sapiens): 2200 nM
- CC50 (CCRF-CEM; Homo sapiens, read-out: LC50): > 100 µM
- IC (TGI) (CCRF-CEM; Homo sapiens, read-out: TGI): 7.66 µM
- Percent Growth (CCRF-CEM; Log10 Concentration −4.0): −49%
- Percent Growth (CCRF-CEM; Log10 Concentration −5.0): −11%
- Percent Growth (CCRF-CEM; Log10 Concentration −6.0): 82%
- Percent Growth (CCRF-CEM; Log10 Concentration −7.0): 100%
- Percent Growth (CCRF-CEM; Log10 Concentration −8.0): 99%
- GI50 (OVCAR-3; Homo sapiens, OVCAR-3): 4.54 µM
- CC50 (OVCAR-3; Homo sapiens, OVCAR-3, read-out: LC50): 40.3 µM
- IC (TGI) (OVCAR-3; Homo sapiens, OVCAR-3, read-out: TGI): 15.7 µM
- Percent Growth (OVCAR-3; OVCAR-3, Log10 Concentration −4.0): −98%
- Percent Growth (OVCAR-3; OVCAR-3, Log10 Concentration −5.0): 24%
- Percent Growth (OVCAR-3; OVCAR-3, Log10 Concentration −6.0): 100%
- Percent Growth (OVCAR-3; OVCAR-3, Log10 Concentration −7.0): 107%
- Percent Growth (OVCAR-3; OVCAR-3, Log10 Concentration −8.0): 96%
- Percent Growth (A549/ATCC; Log10 Concentration −4.0): −66%
- Percent Growth (A549/ATCC; Log10 Concentration −5.0): 83%
- Percent Growth (A549/ATCC; Log10 Concentration −6.0): 104%
- Percent Growth (A549/ATCC; Log10 Concentration −7.0): 93%
- Percent Growth (A549/ATCC; Log10 Concentration −8.0): 92%
- GI50 (A549/ATCC; Homo sapiens, A549): 16.7 µM
- CC50 (A549/ATCC; Homo sapiens, A549, read-out: LC50): 77.8 µM
- IC (TGI) (A549/ATCC; Homo sapiens, A549, read-out: TGI): 36.1 µM
- GI50 (KM12; Homo sapiens, KM12): 17.7 µM
- CC50 (KM12; Homo sapiens, KM12, read-out: LC50): 67.9 µM
- TGI (KM12; KM12): 3.46E−5
- Percent Growth (KM12; KM12, Log10 Concentration −4.0): −79%
- Percent Growth (KM12; KM12, Log10 Concentration −5.0): 92%
- Percent Growth (KM12; KM12, Log10 Concentration −6.0): 104%
- Percent Growth (KM12; KM12, Log10 Concentration −7.0): 100%
- Percent Growth (KM12; KM12, Log10 Concentration −8.0): 98%
- GI50 (SK-MEL-28; Homo sapiens, SK-MEL-28): 3.44 µM
- CC50 (SK-MEL-28; Homo sapiens, SK-MEL-28, read-out: LC50): 46 µM
- IC (TGI) (SK-MEL-28; Homo sapiens, SK-MEL-28, read-out: TGI): 14.8 µM
- Percent Growth (SK-MEL-28; SK-MEL-28, Log10 Concentration −4.0): −84%
- Percent Growth (SK-MEL-28; SK-MEL-28, Log10 Concentration −5.0): 17%
- Percent Growth (SK-MEL-28; SK-MEL-28, Log10 Concentration −6.0): 8.8. Percent
- Percent Growth (SK-MEL-28; SK-MEL-28, Log10 Concentration −7.0): 91%
- Percent Growth (SK-MEL-28; SK-MEL-28, Log10 Concentration −8.0): 92%
